This is an account of results in patent US10870647B2, “Imidazopyridine derivative, method for preparing same, and pharmaceutical composition containing same as active ingredient for preventing or treating cancer” (DAEGU-GYEONGBUK MEDICAL INNOVATION FOUNDATION, priority 2016, dated 2020).

Holding throughout (assay): Kinase selectivity, scanMAX Kinase assay panel (DiscoverX), % control at 1 uM
What all share (assay type): binding

For assay [1], the target named is T1, scanMAX Kinase assay panel (Homo sapiens, UniProt P68400).
T1 construct: purchased DiscoverX
The note with it: CSNK2A1; 1 uM; read-out: Percent Control (%). The procedure, abridged: (§1)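 Binding across the scanMAX kinase panel was tested at 1 uM compound. % control = (compound − positive control)/(negative control − positive control) × 100; below 35 counted as active.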

For assay [2], the target named is T2, scanMAX Kinase assay panel (Homo sapiens, UniProt Q96GD4).
T2 construct: purchased DiscoverX
As to conditions: AURKB; 1 uM; read-out: Percent Control (%). The procedure, abridged:
as §1

Assay [3] concerns the target T3, scanMAX Kinase assay panel (Homo sapiens, UniProt Q8NEB9).
T3 construct: purchased DiscoverX
As to conditions: VPS34; 1 uM; read-out: Percent Control (%). The procedure, abridged: as §1

Assay [4] addresses T4, scanMAX Kinase assay panel (Homo sapiens, UniProt Q9BX84).
T4 construct: purchased DiscoverX
As to conditions: TRPM6; 1 uM; read-out: Percent Control (%). The procedure, abridged:
as §1

Assay [5] has as its target T5, scanMAX Kinase assay panel (Homo sapiens, UniProt Q00537).
T5 construct: purchased DiscoverX
As to conditions: PCTK2; 1 uM; read-out: Percent Control (%). The method, boiled down:
as §1

Assay [6] deals with T6, scanMAX Kinase assay panel (Homo sapiens, UniProt Q86UE8).
T6 construct: purchased DiscoverX
The note with it: TLK2; 1 uM; read-out: Percent Control (%). The method, boiled down: as §1

Assay [7] concerns the target T7, scanMAX Kinase assay panel (Homo sapiens, UniProt P0C1S8).
T7 construct: purchased DiscoverX
The note with it: WEE2; 1 uM; read-out: Percent Control (%). The procedure, abridged:
as §1

The target of assay [8] is T8, scanMAX Kinase assay panel (Homo sapiens, UniProt Q6XUX3).
T8 construct: purchased DiscoverX
T8 sequence (Q6XUX3 1-929): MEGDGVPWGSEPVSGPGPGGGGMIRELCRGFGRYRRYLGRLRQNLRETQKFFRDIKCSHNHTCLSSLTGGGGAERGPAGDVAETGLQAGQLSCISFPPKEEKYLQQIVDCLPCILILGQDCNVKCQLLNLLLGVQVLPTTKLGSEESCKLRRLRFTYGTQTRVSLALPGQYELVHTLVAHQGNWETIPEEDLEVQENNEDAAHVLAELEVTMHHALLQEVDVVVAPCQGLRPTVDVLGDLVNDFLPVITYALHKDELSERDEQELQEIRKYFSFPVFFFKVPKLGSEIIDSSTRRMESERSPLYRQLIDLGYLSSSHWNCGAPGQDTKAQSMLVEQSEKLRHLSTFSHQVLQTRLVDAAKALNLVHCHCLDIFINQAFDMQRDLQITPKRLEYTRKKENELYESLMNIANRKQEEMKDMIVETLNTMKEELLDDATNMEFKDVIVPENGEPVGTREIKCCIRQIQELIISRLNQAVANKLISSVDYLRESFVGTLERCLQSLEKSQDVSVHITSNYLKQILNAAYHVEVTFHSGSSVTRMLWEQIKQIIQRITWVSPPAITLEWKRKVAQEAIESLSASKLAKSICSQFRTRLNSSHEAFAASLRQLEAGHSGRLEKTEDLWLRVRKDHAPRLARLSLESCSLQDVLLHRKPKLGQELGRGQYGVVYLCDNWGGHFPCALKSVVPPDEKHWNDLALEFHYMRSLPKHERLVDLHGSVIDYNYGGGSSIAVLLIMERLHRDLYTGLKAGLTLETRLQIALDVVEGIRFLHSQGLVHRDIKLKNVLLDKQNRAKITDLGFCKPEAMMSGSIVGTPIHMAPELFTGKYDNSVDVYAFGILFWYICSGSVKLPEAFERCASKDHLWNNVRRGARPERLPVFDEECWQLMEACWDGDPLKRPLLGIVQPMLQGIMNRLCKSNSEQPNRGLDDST
The note with it: RIPK5; 1 uM; read-out: Percent Control (%). The procedure, abridged: as §1

Assay [9] concerns the target T9, scanMAX Kinase assay panel (Homo sapiens, UniProt P29320).
T9 construct: purchased DiscoverX
T9 sequence (P29320 21-983): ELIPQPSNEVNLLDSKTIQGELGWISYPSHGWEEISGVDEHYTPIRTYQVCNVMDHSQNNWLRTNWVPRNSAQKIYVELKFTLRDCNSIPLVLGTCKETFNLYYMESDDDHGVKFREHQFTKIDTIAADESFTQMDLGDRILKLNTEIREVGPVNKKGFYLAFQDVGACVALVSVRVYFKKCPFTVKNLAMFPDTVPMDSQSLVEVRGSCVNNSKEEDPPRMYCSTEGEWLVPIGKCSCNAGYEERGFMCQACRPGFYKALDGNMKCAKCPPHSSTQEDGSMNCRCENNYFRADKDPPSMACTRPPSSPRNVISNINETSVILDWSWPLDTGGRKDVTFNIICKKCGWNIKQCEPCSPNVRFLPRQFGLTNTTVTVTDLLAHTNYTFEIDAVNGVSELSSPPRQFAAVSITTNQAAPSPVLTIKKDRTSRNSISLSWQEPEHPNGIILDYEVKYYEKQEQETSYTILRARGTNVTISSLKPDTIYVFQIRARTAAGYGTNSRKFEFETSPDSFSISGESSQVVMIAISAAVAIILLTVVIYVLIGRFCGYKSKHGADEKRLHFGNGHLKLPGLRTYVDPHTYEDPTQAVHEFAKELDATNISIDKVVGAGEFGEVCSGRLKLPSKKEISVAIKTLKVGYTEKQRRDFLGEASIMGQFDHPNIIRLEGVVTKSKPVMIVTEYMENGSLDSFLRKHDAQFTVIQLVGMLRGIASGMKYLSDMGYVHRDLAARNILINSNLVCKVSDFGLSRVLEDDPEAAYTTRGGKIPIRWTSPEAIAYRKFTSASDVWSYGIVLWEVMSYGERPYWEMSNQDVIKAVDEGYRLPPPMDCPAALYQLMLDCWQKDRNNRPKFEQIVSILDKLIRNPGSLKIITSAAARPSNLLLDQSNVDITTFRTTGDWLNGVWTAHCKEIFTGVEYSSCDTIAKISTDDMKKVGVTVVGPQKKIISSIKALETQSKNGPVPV
The note with it: EPHA3; 1 uM; read-out: Percent Control (%). The procedure, abridged: as §1

Assay [10] addresses T10, scanMAX Kinase assay panel (Homo sapiens, UniProt Q15746).
T10 construct: purchased DiscoverX
As to conditions: MYLK; 1 uM; read-out: Percent Control (%). The procedure, abridged: as §1

Molecules are shown by their SMILES.

T3 sequence (Q8NEB9 whole entry): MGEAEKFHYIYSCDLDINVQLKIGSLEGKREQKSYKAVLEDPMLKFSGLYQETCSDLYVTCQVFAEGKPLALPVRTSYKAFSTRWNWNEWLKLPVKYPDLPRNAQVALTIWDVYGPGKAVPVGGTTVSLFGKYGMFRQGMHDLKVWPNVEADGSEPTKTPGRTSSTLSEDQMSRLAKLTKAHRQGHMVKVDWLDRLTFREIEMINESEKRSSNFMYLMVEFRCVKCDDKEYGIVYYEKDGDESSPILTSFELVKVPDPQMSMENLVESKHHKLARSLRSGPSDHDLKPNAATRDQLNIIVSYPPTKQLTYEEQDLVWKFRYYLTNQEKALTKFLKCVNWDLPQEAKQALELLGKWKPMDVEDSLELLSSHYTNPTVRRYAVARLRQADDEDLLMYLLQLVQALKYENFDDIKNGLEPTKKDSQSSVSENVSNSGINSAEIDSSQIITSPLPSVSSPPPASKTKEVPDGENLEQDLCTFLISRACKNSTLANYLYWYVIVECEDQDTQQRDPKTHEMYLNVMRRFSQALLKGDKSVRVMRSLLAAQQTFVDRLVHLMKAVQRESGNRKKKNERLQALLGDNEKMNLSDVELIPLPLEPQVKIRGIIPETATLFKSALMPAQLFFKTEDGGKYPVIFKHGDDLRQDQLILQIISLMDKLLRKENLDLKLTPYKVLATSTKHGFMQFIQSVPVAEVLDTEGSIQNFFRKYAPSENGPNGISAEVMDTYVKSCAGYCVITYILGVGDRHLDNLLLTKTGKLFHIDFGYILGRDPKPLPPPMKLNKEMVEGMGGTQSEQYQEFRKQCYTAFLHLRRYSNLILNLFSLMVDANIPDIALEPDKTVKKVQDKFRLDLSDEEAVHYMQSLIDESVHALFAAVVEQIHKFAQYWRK
T1 sequence (P68400 whole entry): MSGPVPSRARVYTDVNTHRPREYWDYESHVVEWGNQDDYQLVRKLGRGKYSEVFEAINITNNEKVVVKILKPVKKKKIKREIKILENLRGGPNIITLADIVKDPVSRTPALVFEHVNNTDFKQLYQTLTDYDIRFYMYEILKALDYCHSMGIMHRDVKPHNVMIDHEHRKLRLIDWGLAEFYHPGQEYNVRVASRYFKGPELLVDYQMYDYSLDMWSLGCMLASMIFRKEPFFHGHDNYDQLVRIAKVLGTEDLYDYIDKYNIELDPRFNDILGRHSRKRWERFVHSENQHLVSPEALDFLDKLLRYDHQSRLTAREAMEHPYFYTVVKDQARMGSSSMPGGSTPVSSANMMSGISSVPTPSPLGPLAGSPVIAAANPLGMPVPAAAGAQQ
T2 sequence (Q96GD4 whole entry): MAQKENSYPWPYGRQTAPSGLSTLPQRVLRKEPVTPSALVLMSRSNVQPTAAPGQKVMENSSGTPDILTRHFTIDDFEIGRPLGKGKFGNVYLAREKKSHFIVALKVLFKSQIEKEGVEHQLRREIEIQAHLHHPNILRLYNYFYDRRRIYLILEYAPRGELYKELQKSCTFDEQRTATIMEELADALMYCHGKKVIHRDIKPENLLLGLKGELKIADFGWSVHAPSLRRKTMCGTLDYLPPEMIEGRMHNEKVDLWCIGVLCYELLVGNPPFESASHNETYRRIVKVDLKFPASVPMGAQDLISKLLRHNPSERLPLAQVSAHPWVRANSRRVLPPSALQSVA
T10 sequence (Q15746 whole entry): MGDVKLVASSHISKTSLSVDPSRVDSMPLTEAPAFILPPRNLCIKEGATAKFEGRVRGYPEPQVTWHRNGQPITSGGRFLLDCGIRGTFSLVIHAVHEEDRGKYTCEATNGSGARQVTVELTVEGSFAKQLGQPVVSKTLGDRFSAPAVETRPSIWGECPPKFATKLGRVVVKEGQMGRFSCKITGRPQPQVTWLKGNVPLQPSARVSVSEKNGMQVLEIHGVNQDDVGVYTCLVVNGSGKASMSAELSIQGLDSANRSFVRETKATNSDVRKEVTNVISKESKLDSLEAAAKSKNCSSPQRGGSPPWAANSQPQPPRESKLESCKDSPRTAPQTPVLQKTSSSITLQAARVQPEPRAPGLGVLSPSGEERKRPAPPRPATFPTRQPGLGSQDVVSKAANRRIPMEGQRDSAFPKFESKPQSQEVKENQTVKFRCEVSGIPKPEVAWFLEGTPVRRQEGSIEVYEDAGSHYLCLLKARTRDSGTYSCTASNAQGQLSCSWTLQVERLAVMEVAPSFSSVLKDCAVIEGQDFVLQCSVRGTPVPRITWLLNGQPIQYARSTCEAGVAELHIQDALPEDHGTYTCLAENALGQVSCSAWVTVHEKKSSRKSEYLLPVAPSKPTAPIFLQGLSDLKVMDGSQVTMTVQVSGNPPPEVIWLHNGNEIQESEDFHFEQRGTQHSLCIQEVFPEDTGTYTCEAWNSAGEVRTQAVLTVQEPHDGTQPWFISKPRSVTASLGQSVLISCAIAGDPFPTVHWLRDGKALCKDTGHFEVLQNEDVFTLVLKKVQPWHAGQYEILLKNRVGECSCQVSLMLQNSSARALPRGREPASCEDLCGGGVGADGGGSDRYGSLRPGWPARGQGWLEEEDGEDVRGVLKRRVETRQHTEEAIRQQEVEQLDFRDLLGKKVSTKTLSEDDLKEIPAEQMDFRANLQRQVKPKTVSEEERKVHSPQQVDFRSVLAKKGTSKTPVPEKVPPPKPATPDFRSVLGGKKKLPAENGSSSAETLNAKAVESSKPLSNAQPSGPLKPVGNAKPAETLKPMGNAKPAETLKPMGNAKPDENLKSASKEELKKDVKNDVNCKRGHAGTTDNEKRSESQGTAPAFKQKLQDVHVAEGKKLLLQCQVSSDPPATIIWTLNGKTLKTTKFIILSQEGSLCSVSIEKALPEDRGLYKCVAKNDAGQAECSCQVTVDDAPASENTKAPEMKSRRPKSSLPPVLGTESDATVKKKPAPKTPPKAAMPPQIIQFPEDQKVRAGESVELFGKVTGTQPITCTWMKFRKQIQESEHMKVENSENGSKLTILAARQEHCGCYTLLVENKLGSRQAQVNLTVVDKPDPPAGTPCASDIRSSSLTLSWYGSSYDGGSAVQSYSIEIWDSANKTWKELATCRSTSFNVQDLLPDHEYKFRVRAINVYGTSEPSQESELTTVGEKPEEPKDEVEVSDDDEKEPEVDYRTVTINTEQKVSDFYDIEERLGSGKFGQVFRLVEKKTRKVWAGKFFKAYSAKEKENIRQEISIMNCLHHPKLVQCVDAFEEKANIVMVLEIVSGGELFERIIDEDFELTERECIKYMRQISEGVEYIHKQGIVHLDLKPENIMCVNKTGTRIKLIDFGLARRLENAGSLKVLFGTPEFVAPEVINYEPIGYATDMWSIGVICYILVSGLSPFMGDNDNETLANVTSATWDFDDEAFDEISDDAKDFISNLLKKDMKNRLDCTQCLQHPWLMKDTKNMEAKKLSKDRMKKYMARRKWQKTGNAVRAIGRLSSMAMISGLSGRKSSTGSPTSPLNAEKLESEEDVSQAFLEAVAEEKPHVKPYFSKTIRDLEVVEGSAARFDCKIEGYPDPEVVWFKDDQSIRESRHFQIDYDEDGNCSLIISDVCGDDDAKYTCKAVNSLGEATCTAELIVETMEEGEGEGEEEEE
T7 sequence (P0C1S8 whole entry): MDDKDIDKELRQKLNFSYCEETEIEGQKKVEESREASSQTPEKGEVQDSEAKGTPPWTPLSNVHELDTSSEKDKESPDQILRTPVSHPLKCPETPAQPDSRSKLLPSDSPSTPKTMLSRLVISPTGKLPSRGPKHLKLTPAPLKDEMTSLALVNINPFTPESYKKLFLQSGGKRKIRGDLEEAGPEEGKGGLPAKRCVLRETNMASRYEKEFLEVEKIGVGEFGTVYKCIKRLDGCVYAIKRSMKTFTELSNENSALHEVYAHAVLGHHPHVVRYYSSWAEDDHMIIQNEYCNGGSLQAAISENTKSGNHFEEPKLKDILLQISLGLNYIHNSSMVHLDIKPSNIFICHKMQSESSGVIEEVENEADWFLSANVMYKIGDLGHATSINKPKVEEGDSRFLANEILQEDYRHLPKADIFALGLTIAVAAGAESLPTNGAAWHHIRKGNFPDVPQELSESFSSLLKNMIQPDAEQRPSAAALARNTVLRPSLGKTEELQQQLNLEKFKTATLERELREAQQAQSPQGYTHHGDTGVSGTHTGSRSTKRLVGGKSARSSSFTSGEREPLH
T5 sequence (Q00537 whole entry): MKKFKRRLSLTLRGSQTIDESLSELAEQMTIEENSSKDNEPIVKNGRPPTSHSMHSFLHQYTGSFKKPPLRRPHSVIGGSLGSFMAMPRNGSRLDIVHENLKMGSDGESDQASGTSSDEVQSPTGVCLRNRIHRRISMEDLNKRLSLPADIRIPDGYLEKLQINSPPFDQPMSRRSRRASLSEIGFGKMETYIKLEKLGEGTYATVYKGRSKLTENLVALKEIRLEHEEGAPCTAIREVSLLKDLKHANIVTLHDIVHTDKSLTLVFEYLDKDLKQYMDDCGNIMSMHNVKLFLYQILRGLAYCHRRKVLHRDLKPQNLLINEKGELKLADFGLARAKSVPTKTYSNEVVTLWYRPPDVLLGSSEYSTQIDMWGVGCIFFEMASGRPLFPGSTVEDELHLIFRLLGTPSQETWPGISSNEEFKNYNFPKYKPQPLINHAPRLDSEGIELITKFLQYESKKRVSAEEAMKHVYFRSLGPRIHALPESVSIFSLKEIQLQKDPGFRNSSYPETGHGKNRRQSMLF

`Cc1ccc(C(=O)Nc2ccc(CN3CCN(C)CC3)c(C(F)(F)F)c2)cc1C#Cc1cnc2c(Nc3cnn(C)c3)cccn12` [Example 1, 4-methyl-3-((8-((1-methyl-1H-pyrazol-4-yl)amino)imidazo[1,2-a]pyridin-3-yl)ethynyl)-N-(4-((4-methylpiperazin-1-yl)methyl)-3-(trifluoromethyl)phenyl)benzamide]: the remaining binding at 1 µM is 83% in assay [1]; 3% in [2]; 100% in assay [3]; 100% in [4]; 19% in assay [5]; 86% in assay [6]. For the same molecule, the remaining binding at 1 µM in [7] worked out at 60%; in assay [8], 41%; in assay [9], 19%; in [10], 64%.
As to `Cc1ccc(NC(=O)C2(C(=O)Nc3ccc(F)cc3)CC2)cc1C#Cc1cnc2c(Nc3cnn(C(C)C)c3)cccn12` [Example 78], the remaining binding at 1 µM in assay [1] came out at 100%; in assay [2], 34%; in [3] it was 80%; in assay [4], 87%; in [5], 100%; in [6], 100%. The remaining binding at 1 µM came out at 100% in assay [7], 79% in assay [8], 76% in assay [9] and 100% in assay [10].
Take `Cc1cn(-c2cc(NC(=O)c3ccc(C)c(C#Cc4cnc5c(Nc6cnn(C)c6)cccn45)c3)cc(C(F)(F)F)c2)cn1` [Example 12, 4-methyl-N-(3-(4-methyl-1H-imidazol-1-yl)-5-(trifluoromethyl)phenyl)-3-((8-((1-methyl-1H-pyrazol-4-yl)amino)imidazo[1,2-a]pyridin-3-yl)ethynyl)benzamide]: the remaining binding at 1 µM in [1] came out at 100%; in assay [2] it was 56%; in [3], 96%; in assay [4], 87%; in assay [5], 98%; in assay [6] it was 97%. Moreover, the remaining binding at 1 µM was 80% in assay [7], 100% in assay [8], 27% in assay [9] and 100% in assay [10].
